The results in this text go back to patent EP3436445B1, “HISTONE DEMETHYLASE INHIBITORS” (Celgene Quanticel Research, Inc., priority 2016, dated 2017).

One test concerns the target T1, JMJD2C (Homo sapiens, UniProt Q9H3R0).
T1 construct: purchased BPS Bioscience 50105
T1 sequence (Q9H3R0 2-372): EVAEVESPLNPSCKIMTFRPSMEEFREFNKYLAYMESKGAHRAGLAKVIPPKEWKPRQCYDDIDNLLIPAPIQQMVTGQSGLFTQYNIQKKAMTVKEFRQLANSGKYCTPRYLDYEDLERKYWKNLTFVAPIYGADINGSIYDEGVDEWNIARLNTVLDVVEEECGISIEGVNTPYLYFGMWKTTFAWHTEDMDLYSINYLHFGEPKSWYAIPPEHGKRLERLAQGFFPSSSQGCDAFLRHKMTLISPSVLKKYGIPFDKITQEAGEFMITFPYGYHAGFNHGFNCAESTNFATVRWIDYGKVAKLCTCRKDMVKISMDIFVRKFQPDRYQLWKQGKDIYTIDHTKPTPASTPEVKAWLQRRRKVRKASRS
The test is described as follows: JMJD2C in vitro enzyme inhibition assay (TR-FRET). To be noted: Table 5; 0.3 nM JMJD2C, H3K9me3-biotin labeled peptide. The test is classed as biochemical. The text has this: (§1) This assay determines the ability of a test compound to inhibit Jarid1B, JMJD2C and JMJD3 demethylase activity. Baculovirus expressed Jarid1B (GenBank Accession #NM-006618, AA 2-751) was purchased from BPS Bioscience (Cat #50121) or custom made by MolecularThroughput. Baculovirus expressed JMJD2C (GenBank Accession #BC143571, AA 2-372) was purchased from BPS Bioscience (Cat#50105). Baculovirus expressed JMJD3 (GenBank Accession #NM-001080424, AA1043-end) was purchased from BPS Bioscience (Cat#50115).
The ability of test compounds to inhibit the activity of JMJD2C was determined in 384-well plate format under the following reaction conditions: 0.3 nM JMJD2C, 300 nM H3K9me3-biotin labeled peptide (Anaspec cat #64360), 2 µM alpha-ketoglutaric acid in assay buffer of 50 mM HEPES, pH7.3, 0.005% Brij35, 0.5 mM TCEP, 0.2 mg/ml BSA, 50 µM sodium L-ascorbate, and 2 µM ammonium iron(II) sulfate. Reaction product was determined quantitatively by TR-FRET after the addition of detection reagent Phycolink Streptavidin-allophycocyanin (Prozyme) and Europium-anti-di-methylated histone H3 lysine 9 (H3K9me2) antibody (PerkinElmer) in the presence of 5 mM EDTA in LANCE detection buffer (PerkinElmer) at a final concentration of 50 nM and 1 nM, respectively.
The assay reaction was initiated by the following: 2 µl of the mixture of 900 nM H3K9me3-biotin labeled peptide and 6 µM alpha-ketoglutaric acid with 2 µl of 11-point serial diluted inhibitor in 3% DMSO were added to each well of the plate, followed by the addition of 2 µl of 0.9 nM JMJD2C to initiate the reaction. The reaction mixture was incubated at room temperature for 30 minutes, and terminated by the addition of 6 µl of 5 mM EDTA in LANCE detection buffer containing 100 nM Phycolink Streptavidin-allophycocyanin and 2 nM Europium-anti-H3K9me2 antibody. Plates were read by EnVisionMultilabel Reader in TR-FRET mode (excitation at 320 nm, emission at 615 nm and 665 nm) after 1 hour incubation at room temperature. A ratio was calculated (665/615) for each well and fitted to determine inhibition constant (IC50).
A general note: Time-resolved FRET reads energy transfer from a long-lived donor to a nearby acceptor.

The target in another test is T2, JMJD3 (Homo sapiens, UniProt O15054).
T2 construct: purchased BPS Bioscience 50115
T2 sequence (O15054 1043-1682 isoform O15054-1): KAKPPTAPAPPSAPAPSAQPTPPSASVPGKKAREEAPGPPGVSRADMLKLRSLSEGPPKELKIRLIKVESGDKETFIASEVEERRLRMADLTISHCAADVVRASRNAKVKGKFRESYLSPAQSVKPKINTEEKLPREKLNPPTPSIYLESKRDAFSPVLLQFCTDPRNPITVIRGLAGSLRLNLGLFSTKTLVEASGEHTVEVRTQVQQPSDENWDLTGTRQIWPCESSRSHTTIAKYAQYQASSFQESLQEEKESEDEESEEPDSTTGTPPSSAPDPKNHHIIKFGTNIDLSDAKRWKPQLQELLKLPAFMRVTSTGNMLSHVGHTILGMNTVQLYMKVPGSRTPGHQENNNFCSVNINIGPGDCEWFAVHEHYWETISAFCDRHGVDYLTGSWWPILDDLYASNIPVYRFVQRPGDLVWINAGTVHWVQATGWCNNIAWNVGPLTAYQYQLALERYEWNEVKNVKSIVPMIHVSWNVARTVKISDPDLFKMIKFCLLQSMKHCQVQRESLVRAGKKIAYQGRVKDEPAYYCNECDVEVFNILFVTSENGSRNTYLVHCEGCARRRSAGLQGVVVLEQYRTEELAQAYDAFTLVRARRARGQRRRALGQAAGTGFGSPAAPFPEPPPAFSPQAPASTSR
In words: JMJD3 in vitro enzyme inhibition assay (AlphaScreen). Format: biochemical. To be noted: Table 5; 1 nM JMJD3, H3K27me3-biotin labeled peptide.
Text: as §1
The ability of test compounds to inhibit the activity of JMJD3 was determined in 384-well plate format under the following reaction conditions: 1 nM JMJD3, 250 nM H3K27me3-biotin labeled peptide (Anaspec cat # 64367), 1 µM alpha-ketoglutaric acid in assay buffer of 50 mM HEPES, pH7.3, 0.005% Brij35, 0.5 mM TCEP, 0.2 mg/ml BSA, 50 µM sodium L-ascorbate, 5 µM ammonium iron(II) sulfate. Reaction product is determined quantitatively by AlphaScreen detection after the addition of detection reagents anti-H3K27me1 antibody, 5 µg/ml AlphaScreen® Streptavidin-coated Donor beads, and 5 µg/ml AlphaScreen® Protein A Acceptor beads in 50 mM HEPES, pH7.3, 10 mM NaCl, 0.005% Brij35, 10 mM EDTA, 2 mg/ml BSA.
The assay reaction was initiated by the following: 3 µl of the mixture of 750 nM H3K27me3-biotin labeled peptide and 3 µM alpha-ketoglutaric acid with 3 µl of 11-point serial diluted inhibitor in 3% DMSO are added to each well of 384 well Proxiplate (Perkin Elmer), followed by the addition of 3 µl of 3 nM JMJD3 to initiate the reaction. The reaction mixture is incubated at room temperature for 20 minutes, and terminated by the addition of 3 µl of appropriate dilution of anti H3K27me1 antibody in 50 mM HEPES, pH7.3, 10 mM NaCl, 0.005% Brij35, 10 mM EDTA, 2 mg/ml BSA. Plates will then incubated at room temperature for 1 hour, followed by addition of 3 µl of 25 µg/ml AlphaScreen® Streptavidin-coated Donor beads and AlphaScreen® Protein A Acceptor beads in 50 mM HEPES, pH7.3, 10 mM NaCl, 0.005% Brij35, 10 mM EDTA, 2 mg/ml BSA. Plates will then be read by EnVision Multilabel Reader in AlphaScreen mode after minimum 2 hour incubation at room temperature. The AlphaScreen signal for each well is used to determine inhibition constant (IC50).
A general note: In Alpha technology, singlet oxygen from a donor bead excites a nearby acceptor bead.

Turning to `CCC(c1ccccc1)n1cnc(-c2cc(-c3nn[nH]c3C(F)(F)F)ccn2)c1` (stereo not drawn) [Example 74, 2-[1-(1-phenylpropyl)-1H-imidazol-4-yl]-4-[5-(trifluoromethyl)-1H-1,2,3-triazol-4-yl]pyridine], the IC50 against JMJD2C and at JMJD3 was greater than 10 µM each time.

Consider `CCc1ccc(CCn2cnc(-c3cc(-c4nn[nH]c4C(F)(F)F)ccn3)c2)cc1` [Example 95, 2-{1-[2-(4-ethylphenyl)ethyl]-1H-imidazol-4-yl}-4-[5-(trifluoromethyl)-1H-1,2,3-triazol-4-yl]pyridine], for which the IC50 against JMJD2C and against JMJD3 was greater than 10 µM throughout.

Turning to `FC(F)(F)c1[nH]nnc1-c1ccnc(-c2cn(Cc3ccccc3Cl)cn2)c1` [Example 64, 2-{1-[(2-chlorophenyl)methyl]-1H-imidazol-4-yl}-4-[5-(trifluoromethyl)-1H-1,2,3-triazol-4-yl]pyridine], the IC50 on JMJD2C and at JMJD3 was greater than 10 µM throughout.

`Fc1cc(F)c(CCn2cnc(-c3cc(-c4nn[nH]c4C(F)(F)F)ccn3)c2)c(F)c1` [Example 82, 4-[5-(trifluoromethyl)-1H-1,2,3-triazol-4-yl]-2-{1-[2-(2,4,6-trifluorophenyl)ethyl]-1H-imidazol-4-yl}pyridine]: the IC50 at JMJD2C and at JMJD3 was greater than 10 µM in each case.

With `COc1cccc2c1CCCC2Cn1cnc(-c2cc(-c3nn[nH]c3C(F)(F)F)ccn2)c1` (stereo not drawn) [Example 104, 2-{1-[(5-methoxy-1,2,3,4-tetrahydronaphthalen-1-yl)methyl]-1H-imidazol-4-yl}-4-[5-(trifluoromethyl)-1H-1,2,3-triazol-4-yl]pyridine], the IC50 against JMJD2C and against JMJD3 was greater than 10 µM each time.

`Cc1ccc2c(c1)C(Cn1cnc(-c3cc(-c4nn[nH]c4C(F)(F)F)ccn3)c1)CCC2` (stereo not drawn) [Example 103, 2-{1-[(7-methyl-1,2,3,4-tetrahydronaphthalen-1-yl)methyl]-1H-imidazol-4-yl}-4-[5-(trifluoromethyl)-1H-1,2,3-triazol-4-yl]pyridine]: the IC50 at JMJD2C and at JMJD3 was greater than 10 µM throughout.

Turning to `CC(C)(C)c1ccc(CCn2cnc(-c3cc(-c4nn[nH]c4C(F)(F)F)ccn3)c2)cc1` [Example 96, 2-{1-[2-(4-tert-butylphenyl)ethyl]-1H-imidazol-4-yl}-4-[5-(trifluoromethyl)-1H-1,2,3-triazol-4-yl]pyridine], the IC50 at JMJD2C and on JMJD3 was greater than 10 µM each time.

Consider `Cc1ccc(Cn2cnc(-c3cc(-c4nn[nH]c4C(F)(F)F)ccn3)c2)c(F)c1` [Example 71, 2-{1-[(2-fluoro-4-methylphenyl)methyl]-1H-imidazol-4-yl}-4-[5-(trifluoromethyl)-1H-1,2,3-triazol-4-yl]pyridine], for which the IC50 at JMJD2C and against JMJD3 was greater than 10 µM in each case.

Regarding `COc1ccc(CCn2cnc(-c3cc(-c4nn[nH]c4C(F)(F)F)ccn3)c2)cc1` [Example 93, 2-{1-[2-(4-methoxyphenyl)ethyl]-1H-imidazol-4-yl}-4-[5-(trifluoromethyl)-1H-1,2,3-triazol-4-yl]pyridine], the IC50 at JMJD2C and against JMJD3 was greater than 10 µM each time.

In the case of `Fc1ccc(F)c(CCn2cnc(-c3cc(-c4nn[nH]c4C(F)(F)F)ccn3)c2)c1` [Example 88, 2-{1-[2-(2,5-difluorophenyl)ethyl]-1H-imidazol-4-yl}-4-[5-(trifluoromethyl)-1H-1,2,3-triazol-4-yl]pyridine], the IC50 against JMJD2C and at JMJD3 was greater than 10 µM in each case.

`COc1ccc(Cn2cnc(-c3cc(-c4nn[nH]c4C(F)(F)F)ccn3)c2)cc1` [Example 67, 2-{1-[(4-methoxyphenyl)methyl]-1H-imidazol-4-yl}-4-[5-(trifluoromethyl)-1H-1,2,3-triazol-4-yl]pyridine]: the figures for the IC50 at JMJD2C and against JMJD3 were 1 to 10 µM and greater than 10 µM, respectively.

Regarding `Fc1cccc(Cl)c1CCn1cnc(-c2cc(-c3nn[nH]c3C(F)(F)F)ccn2)c1` [Example 80, 2-{1-[2-(2-chloro-6-fluorophenyl)ethyl]-1H-imidazol-4-yl}-4-[5-(trifluoromethyl)-1H-1,2,3-triazol-4-yl]pyridine], the IC50 at JMJD2C and on JMJD3 was greater than 10 µM throughout.

By IC50 is commonly meant the concentration at which inhibition is half-maximal.
